Drawing on patent US11667651B2, “Aminopyridine derivatives as phosphatidylinositol phosphate kinase inhibitors” (HiberCell, Inc., priority 2017, dated 2023), this text covers IC50 for 17 compounds.

In general, IC50 refers to the midpoint of a concentration-inhibition curve.

For assay [1], the target named is T1, PIP4K2A (Homo sapiens, UniProt P48426).
T1 sequence (P48426 1-406): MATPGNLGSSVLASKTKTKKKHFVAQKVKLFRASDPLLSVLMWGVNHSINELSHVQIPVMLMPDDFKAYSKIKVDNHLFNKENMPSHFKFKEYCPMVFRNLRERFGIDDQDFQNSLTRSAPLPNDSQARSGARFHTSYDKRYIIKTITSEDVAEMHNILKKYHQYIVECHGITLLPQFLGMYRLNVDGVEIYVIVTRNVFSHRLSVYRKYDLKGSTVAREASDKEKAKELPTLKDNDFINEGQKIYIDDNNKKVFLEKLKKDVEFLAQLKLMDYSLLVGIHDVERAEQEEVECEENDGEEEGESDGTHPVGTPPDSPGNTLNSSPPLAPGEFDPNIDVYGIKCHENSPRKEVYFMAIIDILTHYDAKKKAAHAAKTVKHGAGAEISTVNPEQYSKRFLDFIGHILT
The experiment in a line: Kinase Assay PIP4K2 A (Table 2). Set-up: 4 nM PIP4K2A (full length protein, SignalChem); purchased SignalChem. The class given is biochemical. Conditions: compounds listed under IC50 bins. As for the experimental part: Dilution series of the compounds were prepared in DMSO at 100 times the final assay concentration (n1=n0/3 in 10 points). The compounds were further diluted to three times the assay concentration in assay buffer (20 mM MOPS pH 7.2, 25 mM magnesium chloride, 0.005% Tween 20). 6 μL of the diluted compounds were added to a 384 well assay plate followed by 9 μL of a mix consisting of 4 nM PIP4K2A (full length protein, SignalChem) and 100 μM PI(5)P diC8 (Tebu-Bio). Enzyme and compounds were pre-incubated at room temperature for 15 minutes.
Then 3 μL of a solution containing 60 μM ATP (Promega) in assay buffer was added to the wells containing compound and enzyme and mixing was performed by pipetting several times. The reaction was incubated at room temperature for 1 h. Then 18 μL of ADP-Glo™ Reagent (Promega) was added to stop the kinase reaction and deplete the unconsumed ATP, mixing was performed by pipetting several times. The plate was incubated at room temperature for 40 minutes before addition of 36 μL of Kinase Detection Reagent (Promega) to convert ADP to ATP and introduce luciferase and luciferin to detect ATP. The reaction was incubated at room temperature for 40 minutes before the luminescence was measured in a in a Victor 3V 1420 multilabel counter (Perkin Elmer).
Percent inhibition of the compounds as compared to dimethyl sulfoxide treated control samples was calculated. Compound concentration versus percent inhibition were fitted to generate IC50 values.

Assay [2] addresses T2, PIP4K2B (Homo sapiens, UniProt P78356).
T2 construct: made in house; host or cells: E. coli
T2 sequence (P78356 1-416): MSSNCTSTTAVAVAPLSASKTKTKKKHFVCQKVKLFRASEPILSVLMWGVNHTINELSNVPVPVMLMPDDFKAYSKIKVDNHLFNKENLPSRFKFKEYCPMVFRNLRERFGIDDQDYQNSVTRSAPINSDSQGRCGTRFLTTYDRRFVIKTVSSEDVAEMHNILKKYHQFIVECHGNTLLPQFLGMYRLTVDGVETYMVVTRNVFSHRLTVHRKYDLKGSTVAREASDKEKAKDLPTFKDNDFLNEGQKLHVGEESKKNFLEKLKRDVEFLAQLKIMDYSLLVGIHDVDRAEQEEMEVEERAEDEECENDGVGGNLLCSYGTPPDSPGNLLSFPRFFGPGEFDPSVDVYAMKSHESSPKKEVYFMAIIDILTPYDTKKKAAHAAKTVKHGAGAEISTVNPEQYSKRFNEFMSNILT
Nature of the assay: Trans-FI P kinase assay PIP4K2B (Table 4). The class given is biochemical. As to conditions: compounds listed under IC50 bins; read-out: Trans-FI P kinase assays: PIP4K2B IC50. The source says:
GST tagged PIP4KtypeIIA and B enzymes were overexpressed in E. Coli and purified to >80% homogeneity. Phosphatidyl inositol-5-phosphate (PI5P, Cat. #850152, Avanti Polar Lipids Inc.) was used as the lipid substrate and phosphatidyl ethanolamine (DOPE 18:1, Cat. #850725, Avanti Polar Lipids Inc.) was used as the carrier lipid for assays. Ultrapure ATP and GTP was purchased from Bellbrooke Labs. ADP Glo reagents were obtained from Promega. Transcreener FI reagent was obtained from Bellbrooke labs.
GST-tagged PIP4KtypeIIB (3.4 μL, 2.77 mg/mL) was diluted to 5 mL using HNE buffer to yield 5× enzyme stock (25 nM)
Lipid Preparation: In a 10 mL pyrex glass vial, […] were suspended in 2.5 mL of HEPES buffer mix and 2.5 mL of H:E buffer. The contents were mixed and sonicated for 3 min to yield a translucent lipid stock.
Compound Preparation: Compounds were stored as 5 mM stocks in neat DMSO as room temperature in glass vials. 5 mM stocks were diluted to 2 mM and then serially diluted (3×) in neat DMSO in 96 well polypropylene plates. From the serially diluted stocks, 3 μL was delivered into 250 μL of 25% DMSO (in water) to generate 5× compound stocks. Typically, the highest compound conc. was 24 μM.
The assay volume was kept at 25 μL. To each well of the reaction plate, 10 μL of lipid stock (1:1 ratio PI5P:DOPE) was delivered. This was followed by the addition of 5 μL of compound in 25% DMSO. Then, to each well, 5 μL of 25 nM (5×) typeIIB enzyme was delivered. The contents were mixed well and incubated for 1 h at 27° C. After 1 h, reaction was initiated by adding 5 μL of 500 μM GTP and the contents were mixed well with a multi-channel pipetteman. The final concentration of the reagents are as follows: 50 mM HEPES, pH 7.3, 10 mM MgCl2, 20 mM NaCl, 0.01% v/v triton-X100, 5% DMSO, 100 μM GTP, 80 μM (2 μg) PI5P, 2 μg DOPE, and 5 nM PIP4KIIB Typically, the highest conc. of compounds was 4.8 μM and the lowest conc. was 0.
After 2 h, the reaction was quenched by adding 25 μL of transcreener FI reagent. The contents were incubated at rt for 1 h and the Fluorescence (Ex: 584 Em: 623) was read using Molecular Devices Paradigm plate reader. […] The blanks were averaged and subtracted from all other wells. Using a calibration curve, RFU was converted to μM GDP (product). IC50 was calculated by plotting the residual activity (expressed as % No inhibitor control) vs. log [Inh. conc.]

On to `CN(C)C(=O)c1ccc(-c2ccc(Nc3cnc4c(c3)NC(=O)CO4)nc2)cc1` [Example 88, N,N-dimethyl-4-(6-((2-oxo-2,3-dihydro-1H-pyrido[2,3-b][1,4]oxazin-7-yl)amino)pyridin-3-yl)benzamide], for which the IC50 was 0.1 to 1 µM in assay [1] and greater than 1 µM in assay [2].
The corresponding values for `CN(C)C(=O)c1ccc(-c2ccc(Nc3cnc4c(c3)N(C(=O)C3CC3)CCO4)nc2)cc1` [Example 90, 4-(6-((1-(cyclopropanecarbonyl)-2,3-dihydro-1H-pyrido[2,3-b][1,4]oxazin-7-yl)amino)pyridin-3-yl)-N,N-dimethylbenzamide] are 0.001 to 0.01 µM and 0.01 to 0.1 µM.
Taken in the same sequence, the figures for `CC(=O)OC(C)C(=O)N1CCOc2ncc(Nc3ccc(-c4ccc(C(=O)N(C)C)cc4)cn3)cc21` (centres unmarked) [Example 91, 1-(7-((5-(4-(dimethylcarbamoyl)phenyl)pyridin-2-yl)amino)-2,3-dihydro-1H-pyrido[2,3-b][1,4]oxazin-1-yl)-1-oxopropan-2-yl acetate] were 0.01 to 0.1 µM and 0.01 to 0.1 µM.
The corresponding values for `CC(O)C(=O)N1CCOc2ncc(Nc3ccc(-c4ccc(C(=O)N(C)C)cc4)cn3)cc21` (centres unmarked) [Example 92, 4-(6-((1-(2-hydroxypropanoyl)-2,3-dihydro-1H-pyrido[2,3-b][1,4]oxazin-7-yl)amino)pyridin-3-yl)-N,N-dimethylbenzamide] are 0.001 to 0.01 µM and 0.01 to 0.1 µM.
With `COC(=O)N1CCOc2ncc(Nc3ccc(-c4ccc(C(=O)N(C)C)cc4)cn3)cc21` [Example 93, methyl 7-((5-(4-(dimethylcarbamoyl)phenyl)pyridin-2-yl)amino)-2,3-dihydro-1H-pyrido[2,3-b][1,4]oxazine-1-carboxylate], the IC50 in assay [1] fell in the range of 0.001 to 0.01 µM; in assay [2] it was 0.01 to 0.1 µM.
Taken in the same sequence, the figures for `CN(C)C(=O)c1ccc(-c2ccc(Nc3cnc4c(c3)N(C(=O)C(C)(C)C)CCO4)nc2)cc1` [Example 97, N,N-dimethyl-4-(6-((1-pivaloyl-2,3-dihydro-1H-pyrido[2,3-b][1,4]oxazin-7-yl)amino)pyridin-3-yl)benzamide] were 0.001 to 0.01 µM and 0.01 to 0.1 µM.
Take `CN(C)C(=O)c1ccc(-c2ccc(Nc3cncc(NC(=O)c4cccc(N)c4)c3)nc2)cc1` [Example 99, 4-(6-((5-(3-aminobenzamido)pyridin-3-yl)amino)pyridin-3-yl)-N,N-dimethylbenzamide]: the IC50 in assay [1] and in assay [2] was 0.01 to 0.1 µM in each case.
In the case of `CN(C)C(=O)c1ccc(-c2ccc(Nc3cncc(N)c3)nc2)cc1` [Example 115, 4-(6-((5-aminopyridin-3-yl)amino)pyridin-3-yl)-N,N-dimethylbenzamide], the IC50 in assay [1] is 0.1 to 1 µM; in assay [2], greater than 1 µM.
Regarding `CN1C[C@H]2COc3ncc(Nc4ccc(-c5ccc(N6CCCC6=O)cc5)cn4)cc3N2S1(=O)=O` [Example 175, (S)-1-(4-(6-((2-methyl-1,1-dioxido-2,3,3a,4-tetrahydropyrido[2,3-b][1,2,5]thiadiazolo[2,3-d][1,4]oxazin-8-yl)amino)pyridin-3-yl)phenyl)pyrrolidin-2-one], the IC50 in assay [1] was 0.1 to 1 µM; in assay [2] it was 0.01 to 0.1 µM.
Taken in the same sequence, the figures for `COCc1nc(Nc2cnc3c(c2)N2C(=O)C4(CC4)C[C@H]2CO3)ncc1-c1ccc(N2CCCC2=O)cc1` [Example 202, (S)-2′-((4-(methoxymethyl)-5-(4-(2-oxopyrrolidin-1-yl)phenyl)pyrimidin-2-yl)amino)-6a′,7′-dihydro-6′H,9′H-spiro[cyclopropane-1,8′-pyrido[2,3-b]pyrrolo[1,2-d][1,4]oxazin]-9′-one] were 0.001 to 0.01 µM and 0.001 to 0.01 µM.
The corresponding values for `CC(C)c1nc(Nc2cnc3c(c2)N2C(=O)CC[C@H]2CO3)ncc1-c1ccc(N2CCCC2=O)cc1` [Example 215, (S)-2-((4-isopropyl-5-(4-(2-oxopyrrolidin-1-yl)phenyl)pyrimidin-2-yl)amino)-6,6a,7,8-tetrahydro-9H-pyrido[2,3-b]pyrrolo[1,2-d][1,4]oxazin-9-one] are no more than 0.001 µM and 0.001 to 0.01 µM.
`CN(C)C(=O)Cc1cncc(Nc2ccc(-c3ccc(C(=O)N(C)C)cc3)cn2)c1` [Example 218, 4-(6-((5-(2-(dimethylamino)-2-oxoethyl)pyridin-3-yl)amino)pyridin-3-yl)-N,N-dimethylbenzamide] registered a half-inhibitory concentration (IC50) in assay [1] of 0.1 to 1 µM.
Still for that read-out and setting: under `CNC(=O)c1ccc(-c2ccc(Nc3cncc(N4CCCC4=O)c3)nc2)cc1` [Example 219, N-methyl-4-(6-((5-(2-oxopyrrolidin-1-yl)pyridin-3-yl)amino)pyridin-3-yl)benzamide] stands greater than 1 µM; under `CC(=O)Nc1ccc(-c2ccc(C(=O)N(C)C)cc2)cn1` [Example 220, 4-(6-acetamidopyridin-3-yl)-N,N-dimethylbenzamide], greater than 1 µM.
On the same count and under the same terms, with `CN(C)C(=O)c1ccc(-c2ccc(Nc3cc[nH]c(=O)c3)nc2)cc1` [Example 221, N,N-dimethyl-4-(6-((2-oxo-1,2-dihydropyridin-4-yl)amino)pyridin-3-yl)benzamide] the figure was greater than 1 µM.
Regarding `CN(C)C(=O)c1ccc(-c2cnc(Nc3cccnc3)nc2)cc1` [Example 264, N,N-dimethyl-4-(2-(pyridin-3-ylamino)pyrimidin-5-yl)benzamide], the IC50 in assay [1] fell in the range of 0.1 to 1 µM.
As for `Cn1cnnc1N1CC=C(c2ccc(Nc3cnc4c(c3)N3C(=O)CC[C@H]3CO4)nc2)CC1` [Example 274, (S)-2-((1′-(4-methyl-4H-1,2,4-triazol-3-yl)-1′,2′,3′,6′-tetrahydro-[3,4′-bipyridin]-6-yl)amino)-6,6a,7,8-tetrahydro-9H-pyrido[2,3-b]pyrrolo[1,2-d][1,4]oxazin-9-one], the IC50 in assay [1] is 0.1 to 1 µM; in assay [2], 0.01 to 0.1 µM.
